From paper PMC6214026, “PSMA-Oriented Target Delivery of Novel Anticancer Prodrugs: Design, Synthesis, and Biological Evaluations of Oligopeptide-Camptothecin Conjugates” (International Journal of Molecular Sciences, 2018)
In brackets after ≈: the same amount, converted by molar mass. Read-outs that look alike come from different tables or passages of the source.

Key:
MDCK cells = test: cells; assay type: cell-based; conditions: MTT, 72 h, normal cells, read-out: IC50 MDCK
Description: (§1) The cytotoxicities of PSMA-activated prodrug CPT-HT-J-ZLn and PSMA hydrolysate CPT-D-GLn were evaluated by MTT assays on PSMA-expressing (PSMA^+) cancer cell LNCaP-FGC, non-PSMA-expressing (PSMA^−) cancer cells HepG2, MCF-7, Hela, DU145, and PC-3, and normal cells MDCK, LO2, respectively, using CPT as a positive control.
(§2) The cytotoxicity of all the tested compounds was evaluated in vitro via the MTT method against PSMA-expressing LNCaP-FGC cells and non-PSMA-expressing cells HepG2, Hela, MCF-7, DU145, PC-3 cells using CPT as the positive control. Tumor cells growing in the logarithmic phase were seeded in 96-well plates at a density 3 × 10^3 cells/well and incubated overnight. The following day, cells were then treated with serial dilutions of the tested compounds for 72 h. At the end of this incubation, 20 µL of 5 mg/mL methylthiazol tetrazolium (MTT) was added to each well and incubation proceeded at 37 °C for another 4 h. After the supernatant medium was thrown away, 150 µL dimethylsulphoxide (DMSO) were added to each well and absorbance was measured at 490 nm using a plate reader (BIORAD 550 spectrophotometer, Bio-rad Life Science Development Ltd., Berkeley, CA, USA). Experiments were performed in triplicate and the values were the average of three (n = 3) independent experiments. The concentration of the compound that results in 50% growth inhibition corresponds to the IC50. Tumor cell growth inhibitory rate was calculated using Equation (1): % inhibition = (1 − Sample group OD/Control group OD) × 100%(1)

LO2 cells = test: cells; assay type: cell-based; conditions: MTT, 72 h, normal cells, read-out: IC50 LO2
Description: as §1, §2

[1] = tested on: HepG2 cells (non-PSMA-expressing); test: cells; assay type: cell-based, human; conditions: MTT, 72 h, mean ± SD, n = 3, read-out: IC50 HepG2
Description: as §1
(§3) The human prostate cancer cell line (LNCaP-FGC), human prostate cancer cell line (PC-3), human prostate cancer cell line (DU-145), human breast cancer cell line (MCF-7), human hepatocellular carcinoma cell line (HepG2), human cervical cancer cell line (Hela), were obtained from the Chinese Academy of Medical Sciences and Peking Union Medical College. The cultures of the cells were maintained as a monolayer in RPMI 1640 or DMEM supplemented with 10% (v/v) heat inactivated fetal bovine serum and 1% (v/v) enicillin/streptomycin (Corning, New York, NY, USA) and incubated at 37 °C in a humidified atmosphere with 5% CO2. The tested compounds were dissolved in DMSO (Sigma, St. Louis, MO, USA) and added at required concentrations to the cell culture.
as §2

[2] = tested on: MCF-7 cells (non-PSMA-expressing); test: cells; assay type: cell-based, human; conditions: MTT, 72 h, mean ± SD, n = 3, read-out: IC50 MCF-7
Description: as §1, §3, §2

[3] = tested on: DU145 cells (non-PSMA-expressing); test: cells; assay type: cell-based, human; conditions: MTT, 72 h, mean ± SD, n = 3, read-out: IC50 DU145
Description: as §1, §3, §2

[4] = tested on: PC-3 cells (non-PSMA-expressing); test: cells; assay type: cell-based, human; conditions: MTT, 72 h, mean ± SD, n = 3, read-out: IC50 PC-3
Description: as §1, §3, §2

[5] = Aqueous (equilibrium) solubility study in PBS; assay type: physicochemical; conditions: pH = 7.4, 37 °C
Description: The equilibrium solubility of CPT and CPT-HT-J-ZL12 was determined in triplicate in PBS, according to the reference method with some modifications. An excess amount (~5 mg) of the tested compounds were placed into tubes, and 1 mL PBS was added to the tube. Then the tubes were incubated at 37 °C for 24 h in an ermostated oscillator (HZQ-QX, Harbin Donglian Instrument Co., Ltd., Harbin, China). After incubation, samples (0.1 mL) were removed and centrifuged at 10,000× g for 10 min with high speed centrifuge (Sorvall™ Legend™ Micro 21, Thermo Fisher Scientific, Waltham, MA, USA). […] of the supernatant was diluted, and the concentration was measured with HPLC according the method below. CPT and CPT-HT-J-ZL12 were measured by HPLC systems configured with a Waters 2695 separation module and a Waters 2695 ultraviolet (UV) detector with the following conditions: Xbridge C18 column (250 mm × 4.6 mm, […]); temperature, 25 °C; elution flow rate, 1.0 mL/min; detection wavelength, 365 nm. mobile phase, 0.2% […] in water (A) and 0.2% formic acid in acetonitrile (B) using a gradient elution of 10–60% B at 0–5.0 min, 60–80% B at 5.0–15.0 min, 80% B at 15.0–17.0 min, and 10% B at 17.1–23.0 min.

[6] = tested on: LNCaP-FGC cells (PSMA-expressing); test: MTT cytotoxicity assay, LNCaP-FGC; assay type: cell-based, human; conditions: MTT, 72 h, mean ± SD, n = 3, PSMA+, read-out: IC50 LNCaP-FGC
Description: as §1, §3, §2

[7] = tested on: HeLa cells (non-PSMA-expressing); test: MTT cytotoxicity assay, HeLa; assay type: cell-based, human; conditions: 72 h, mean ± SD, n = 3
Description: as §1
The tested compounds were dissolved in DMSO (Sigma, St. Louis, MO, USA) and added at required concentrations to the cell culture.
as §2, with “experiments.” for “experiments. The concentration of the compound that results in 50% growth inhibition corresponds to the IC50. Tumor cell growth inhibitory rate was calculated using Equation (1): % inhibition = (1 − Sample group OD/Control group OD) × 100%(1)”

## CC[C@@]1(O)C(=O)OCc2c1cc1n(c2=O)Cc2cc3ccccc3nc2-1 [CPT, Camptothecin]
MDCK cells; Canis lupus familiaris, MDCK
  IC50: 0.02 ± 0.01 µM
LO2 cells; Homo sapiens, L02
  IC50: 0.04 ± 0.01 µM
[1]; Homo sapiens, HepG2
  IC50: 5.43 ± 0.81 µM
[2]; Homo sapiens, MCF7
  IC50: 0.16 ± 0.1 µM
[3]; Homo sapiens, DU-145
  IC50: 0.21 ± 0.09 µM
[4]; Homo sapiens, PC-3
  IC50: 0.13 ± 0.09 µM
[5]
  solubility at 24 h: 3 µg/mL (≈ 8.61 µM)
[6]; Homo sapiens
  IC50: 0.18 ± 0.17 µM

## CC[C@@]1(OC(=O)CCCCCNC(=O)[C@H](CCC(=O)N[C@@H](CCC(=O)N[C@@H](CCC(=O)N[C@@H](CC(=O)OC(C)(C)C)C(=O)N[C@@H](CCC(=O)OC(C)(C)C)C(=O)OC(C)(C)C)C(=O)OC(C)(C)C)C(=O)OC(C)(C)C)NC(=O)OC(C)(C)C)C(=O)OCc2c1cc1n(c2=O)Cc2cc3ccccc3nc2-1 [CPT-HT-J-L6, 1,11,16,3-tetra-tert-butyl 28-((S)-4-ethyl-3,14-dioxo-3,4,12,14-tetrahydro-1H-pyrano[3′,4′:6,7]indolizino[1,2-b]quinolin-4-yl) (3S,6S,11S,16S,21S)-6-(2-(tert-butoxy)-2-oxoethyl)-21-((tert-butoxycarbonyl)amino)-5,8,13,18,22-pentaoxo-4,7,12,17,23-pentaazaoctacosane-1,3,11,16,28-pentacarboxylate]
[7]
  IC50: > 40 µM
MDCK cells
  IC50: > 40 µM
LO2 cells
  IC50: > 40 µM
[1]
  IC50: > 40 µM
[2]
  IC50: > 40 µM
[3]
  IC50: > 40 µM
[4]
  IC50: > 40 µM
[6]
  IC50: > 40 µM

## CC[C@@]1(OC(=O)CCCCCCCCCCCNC(=O)[C@H](CCC(=O)N[C@@H](CCC(=O)N[C@@H](CCC(=O)N[C@@H](CC(=O)OC(C)(C)C)C(=O)N[C@@H](CCC(=O)OC(C)(C)C)C(=O)OC(C)(C)C)C(=O)OC(C)(C)C)C(=O)OC(C)(C)C)NC(=O)OC(C)(C)C)C(=O)OCc2c1cc1n(c2=O)Cc2cc3ccccc3nc2-1 [CPT-HT-J-L12, 1,11,16,3-tetra-tert-butyl 34-((S)-4-ethyl-3,14-dioxo-3,4,12,14-tetrahydro-1H-pyrano[3′,4′:6,7]indolizino[1,2-b]quinolin-4-yl) (3S,6S,11S,16S,21S)-6-(2-(tert-butoxy)-2-oxoethyl)-21-((tert-butoxycarbonyl)amino)-5,8,13,18,22-pentaoxo-4,7,12,17,23-pentaazatetratriacontane-1,3,11,16,34-pentacarboxylate]
[7]
  IC50: > 40 µM
MDCK cells
  IC50: > 40 µM
LO2 cells
  IC50: > 40 µM
[1]
  IC50: > 40 µM
[2]
  IC50: > 40 µM
[3]
  IC50: > 40 µM
[4]
  IC50: > 40 µM
[6]
  IC50: > 40 µM

## CC[C@@]1(OC(=O)CNC(=O)[C@@H](N)CCC(=O)N[C@@H](CCC(=O)N[C@@H](CCC(=O)N[C@@H](CC(=O)O)C(=O)N[C@@H](CCC(=O)O)C(=O)O)C(=O)O)C(=O)O)C(=O)OCc2c1cc1n(c2=O)Cc2cc3ccccc3nc2-1 [CPT-HT-J-ZL2, ((S)-4-((S)-4-((S)-4-amino-5-((2-(((S)-4-ethyl-3,14-dioxo-3,4,12,14-tetrahydro-1H-pyrano[3′,4′:6,7]indolizino[1,2-b]quinolin-4-yl)oxy)-2-oxoethyl)amino)-5-oxopentanamido)-4-carboxybutanamido)-4-carboxybutanoyl)-L-aspartyl-L-glutamic acid]
[7]
  IC50: 3.54 ± 2.54 µM
MDCK cells
  IC50: 1.27 ± 0.3 µM
LO2 cells
  IC50: 1.68 ± 0.45 µM
[1]
  IC50: > 40 µM
[2]
  IC50: 0.11 ± 0.08 µM
[3]
  IC50: 1.16 ± 0.28 µM
[4]
  IC50: 1 ± 0.1 µM
[6]
  IC50: 2.04 ± 0.3 µM

## CC[C@@]1(OC(=O)CCCNC(=O)[C@@H](N)CCC(=O)N[C@@H](CCC(=O)N[C@@H](CCC(=O)N[C@@H](CC(=O)O)C(=O)N[C@@H](CCC(=O)O)C(=O)O)C(=O)O)C(=O)O)C(=O)OCc2c1cc1n(c2=O)Cc2cc3ccccc3nc2-1 [CPT-HT-J-ZL4, (3S,6S,11S,16S,21S)-21-amino-6-(carboxymethyl)-27-(((S)-4-ethyl-3,14-dioxo-3,4,12,14-tetrahydro-1H-pyrano[3′,4′:6,7]indolizino[1,2-b]quinolin-4-yl)oxy)-5,8,13,18,22,27-hexaoxo-4,7,12,17,23-pentaazaheptacosane-1,3,11,16-tetracarboxylic acid]
[7]
  IC50: > 40 µM
MDCK cells
  IC50: 9.13 ± 2.4 µM
LO2 cells
  IC50: > 40 µM
[1]
  IC50: > 40 µM
[2]
  IC50: 0.32 ± 0.01 µM
[3]
  IC50: 9.73 ± 3.49 µM
[4]
  IC50: 9.98 ± 2.38 µM
[6]
  IC50: 1.18 ± 0.1 µM

## CC[C@@]1(OC(=O)CCCCCNC(=O)[C@@H](N)CCC(=O)N[C@@H](CCC(=O)N[C@@H](CCC(=O)N[C@@H](CC(=O)O)C(=O)N[C@@H](CCC(=O)O)C(=O)O)C(=O)O)C(=O)O)C(=O)OCc2c1cc1n(c2=O)Cc2cc3ccccc3nc2-1 [CPT-HT-J-ZL6, (3S,6S,11S,16S,21S)-21-amino-6-(carboxymethyl)-29-(((S)-4-ethyl-3,14-dioxo-3,4,12,14-tetrahydro-1H-pyrano[3′,4′:6,7]indolizino[1,2-b]quinolin-4-yl)oxy)-5,8,13,18,22,29-hexaoxo-4,7,12,17,23-pentaazanonacosane-1,3,11,16-tetracarboxylic acid]
[7]
  IC50: > 40 µM
MDCK cells
  IC50: 19 ± 3.6 µM
LO2 cells
  IC50: > 40 µM
[1]
  IC50: > 40 µM
[2]
  IC50: 7.03 ± 3.76 µM
[3]
  IC50: 26.3 ± 1.81 µM
[4]
  IC50: 40 ± 3.37 µM
[6]
  IC50: 3.13 ± 0.4 µM
